Measured values as given in the supplement of paper PMC10331698.
± gives the standard deviation of the averaged measurements.

Legend:
Experiment in all cases: level (log10 ratio to DMSO vehicle control); higher = higher biomarker level / cell amount than vehicle control
Conditions in all cases: in DMSO
1H,1H-Heptafluorobutanol = compound: OCC(F)(F)C(F)(F)C(F)(F)F [1H,1H-Heptafluorobutanol]
Method in brief: (§1)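 Log10-transformed ratios of each well to the mean of 8 same-plate DMSO wells were averaged over duplicate blinded samples. The wells contained BioMAP Diversity Plus human primary cell co-cultures given test substances 1 h before cytokine or activator stimulation, then incubated 24 h, or 48 h for MyoF and 72 h for BT (6 d for secreted IgG). Biomarkers were read by ELISA, cell amount by sulforhodamine B, and PBMC viability/proliferation by Alamar Blue.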

[1] = compound: O=C(O)C(F)(F)C(F)(F)C(F)(F)C(F)(F)C(F)(F)C(F)(F)C(F)(F)C(F)(F)C(F)(F)C(F)(F)C(F)(F)C(F)(F)F [Perfluorotridecanoic acid]
Method in brief: as §1

[2] = compound: O=C(O)C(F)(F)C(F)(F)C(F)(F)C(F)(F)C(F)(F)C(F)(F)C(F)(F)C(F)(F)Cl [9-Chloro-perfluorononanoic acid]
Method in brief: as §1

[3] = compound: C=CC(=O)OCCC(F)(F)C(F)(F)C(F)(F)C(F)(F)F [2-(Perfluorobutyl)ethyl acrylate]
Method in brief: as §1

Perfluorohexanoic acid = compound: O=C(O)C(F)(F)C(F)(F)C(F)(F)C(F)(F)C(F)(F)F [Perfluorohexanoic acid]
Method in brief: as §1

[4] = compound: O=C(O)C(F)(F)C(F)(F)C(F)(F)C(F)(F)C(F)(F)C(F)(F)C(F)(F)C(F)(F)C(F)(F)C(F)(F)C(F)(F)C(F)(F)C(F)(F)F [Perfluorotetradecanoic acid]
Method in brief: as §1

[5] = compound: OCC(F)(F)C(F)(F)C(F)(F)C(F)(F)C(F)(F)C(F)F [1H,1H,7H-Dodecafluoro-1-heptanol]
Method in brief: as §1

Test System | level (log10) (1H,1H-Heptafluorobutanol; 6700 nM) | level (log10) (1H,1H-Heptafluorobutanol; 20000 nM) | level (log10) (1H,1H-Heptafluorobutanol; 60000 nM) | level (log10) ([1]; 1500 nM) | level (log10) ([1]; 4400 nM) | level (log10) ([1]; 13000 nM) | level (log10) ([1]; 40000 nM) | level (log10) ([2]; 6700 nM) | level (log10) ([2]; 20000 nM) | level (log10) ([3]; 6700 nM) | level (log10) ([3]; 20000 nM) | level (log10) ([3]; 60000 nM) | level (log10) (Perfluorohexanoic acid; 6700 nM) | level (log10) (Perfluorohexanoic acid; 20000 nM) | level (log10) (Perfluorohexanoic acid; 60000 nM) | level (log10) ([4]; 6700 nM) | level (log10) ([4]; 20000 nM) | level (log10) ([5]; 6700 nM) | level (log10) ([5]; 20000 nM) | level (log10) ([5]; 60000 nM)
KF3CT:SRB | 0.0015 ± 0.015 | 0.0005 ± 0.00071 | 0.0095 ± 0.0021 | 0.0015 ± 0.00071 | -0.0055 ± 0.0021 | -0.0095 ± 0.0021 | -0.035 ± 0.0042 | -0.0135 ± 0.0035 | -0.0145 ± 0.012 | -0.01 ± 0.0028 | -0.0095 ± 0.005 | -0.0205 ± 0.013 | 0.0045 ± 0.0035 | -0.012 ± 0.0014 | 0.0045 ± 0.00071 | -0.0005 ± 0.0035 | 0.0025 ± 0.0078 | -0.0025 ± 0.0064 | -0.001 ± 0.0042 | 0.002 ± 0.0085
KF3CT:TIMP-2 | 0.0155 ± 0.011 | 0.002 ± 0.0057 | -0.007 ± 0.0042 | 0.0125 ± 0.016 | 0.028 ± 0.013 | 0.0165 ± 0.022 | 0.0295 ± 0.015 | -0.0205 ± 0.0021 | -0.0015 ± 0.0021 | 0.0145 ± 0.0021 | -0.0175 ± 0.0078 | -0.009 ± 0.023 | 0.004 ± 0.016 | -0.0125 ± 0.0035 | -0.0125 ± 0.0078 | 0.0455 ± 0.032 | 0.0065 ± 0.012 | 0.0015 ± 0.005 | 0.0015 ± 0.0021 | 0.0015 ± 0.0064
KF3CT:uPA | 0.0095 ± 0.0021 | 0.0015 ± 0.0078 | 0.0065 ± 0.00071 | 0.0005 ± 0.018 | -0.003 ± 0.011 | 0.0035 ± 0.015 | -0.0035 ± 0.011 | 0.0095 ± 0.0078 | 0.01 | -0.012 ± 0.0099 | 0.0155 ± 0.00071 | -0.0225 ± 0.00071 | 0.0125 ± 0.0064 | -0.004 ± 0.0085 | 0.016 ± 0.0099 | -0.014 ± 0.038 | 0.0115 ± 0.032 | 0.001 ± 0.011 | -0.0155 ± 0.013 | 0.0035 ± 0.015
MyoF:CD106/VCAM-1 | 0.0025 ± 0.022 | 0.0025 ± 0.011 | 0.008 ± 0.0014 | -0.0105 ± 0.0078 | 0.01 ± 0.0071 | -0.003 ± 0.0085 | 0.0035 ± 0.033 | -0.008 ± 0.025 | -0.101 ± 0.023 | -0.019 ± 0.0085 | -0.044 ± 0.027 | -0.101 ± 0.045 | 0.002 ± 0.0057 | 0.002 ± 0.0071 | -0.0095 ± 0.013 | -0.0045 ± 0.019 | 0.013 ± 0.025 | -0.014 ± 0.021 | -0.0115 ± 0.0092 | -0.019 ± 0.016
MyoF:CXCL8/IL-8 | -0.0145 ± 0.033 | 0.016 ± 0.02 | 0.008 ± 0.0057 | -0.01 ± 0.023 | -0.0295 ± 0.0078 | -0.0275 ± 0.0021 | -0.025 ± 0.0042 | 0.0025 ± 0.015 | -0.06 ± 0.0057 | -0.0045 ± 0.0078 | -0.0025 ± 0.016 | 0.02 ± 0.025 | -0.0015 ± 0.016 | -0.0075 ± 0.026 | -0.015 ± 0.05 | 0.0095 ± 0.0078 | 0.017 ± 0.0071 | -0.034 ± 0.051 | 0 ± 0.1 | 0.0265 ± 0.063
MyoF:Collagen I | -0.01 ± 0.024 | -0.0065 ± 0.022 | -0.0005 ± 0.013 | -0.0045 ± 0.019 | -0.0115 ± 0.016 | -0.016 ± 0.025 | -0.213 ± 0.037 | -0.0135 ± 0.005 | -0.29 ± 0.019 | 0.0105 ± 0.016 | 0.01 ± 0.03 | -0.002 ± 0.025 | -0.01 ± 0.0057 | -0.0095 ± 0.0092 | -0.0025 ± 0.011 | 0.0015 ± 0.0078 | 0.0215 ± 0.033 | 0.0055 ± 0.012 | -0.0175 ± 0.018 | 0.003 ± 0.023
MyoF:Collagen III | 0.0065 ± 0.0035 | -0.0065 ± 0.005 | -0.0065 ± 0.0064 | -0.015 ± 0.025 | -0.0115 ± 0.012 | -0.026 ± 0.02 | -0.044 ± 0.0071 | -0.033 ± 0.027 | -0.498 ± 0.0085 | -0.009 ± 0.016 | -0.006 ± 0.0028 | -0.0265 ± 0.013 | 0.0075 ± 0.012 | 0.003 ± 0.02 | 0.0105 ± 0.0092 | -0.015 | -0.002 ± 0.03 | -0.0095 ± 0.0035 | -0.012 | -0.015 ± 0.0071
MyoF:Collagen IV | -0.0305 ± 0.025 | -0.037 ± 0.033 | -0.029 ± 0.0071 | -0.0095 ± 0.043 | 0.002 ± 0.018 | 0.004 ± 0.04 | 0.064 ± 0.013 | 0.024 ± 0.0071 | 0.264 ± 0.031 | 0.0195 ± 0.0078 | -0.0085 ± 0.012 | 0.0295 ± 0.035 | 0.0245 ± 0.0064 | 0.0165 ± 0.0064 | 0.0345 ± 0.037 | -0.002 ± 0.0071 | 0.023 ± 0.016 | -0.0115 ± 0.015 | -0.0025 ± 0.018 | 0.011 ± 0.025
MyoF:Decorin | 0.0055 ± 0.0064 | 0.013 ± 0.016 | 0.02 ± 0.03 | 0.046 ± 0.05 | 0.06 ± 0.035 | 0.047 ± 0.047 | 0.0365 ± 0.039 | 0.012 ± 0.0014 | -0.0045 ± 0.05 | 0.0005 ± 0.016 | 0.004 ± 0.016 | 0.022 ± 0.037 | -0.0215 ± 0.015 | 0.0005 ± 0.023 | 0.024 ± 0.013 | 0.033 ± 0.027 | 0.0515 ± 0.026 | -0.0105 ± 0.00071 | -0.0005 ± 0.036 | -0.017 ± 0.021
MyoF:MMP-1 | -0.031 ± 0.0057 | -0.019 ± 0.011 | 0.012 ± 0.081 | -0.0005 ± 0.021 | 0.018 ± 0.016 | -0.025 ± 0.0099 | 0.014 ± 0.02 | -0.028 ± 0.03 | -0.0585 ± 0.0064 | 0.0005 ± 0.0092 | 0.024 ± 0.017 | 0.0405 ± 0.012 | -0.0115 ± 0.0035 | -0.0055 ± 0.019 | 0.0235 ± 0.025 | -0.0305 ± 0.015 | 0.002 ± 0.017 | -0.025 ± 0.035 | -0.029 ± 0.021 | -0.0015 ± 0.012
MyoF:PAI-I | 0.0065 ± 0.0035 | 0.002 ± 0.0071 | -0.001 | 0.013 ± 0.013 | -0.002 | -0.0035 ± 0.00071 | 0.012 ± 0.0085 | -0.0065 ± 0.0078 | -0.0185 ± 0.011 | -0.003 ± 0.0071 | 0.001 ± 0.023 | 0.0005 ± 0.018 | 0.0025 ± 0.005 | 0.002 ± 0.0028 | 0.009 | 0.0115 ± 0.0064 | 0.006 | -0.0045 ± 0.013 | -0.0015 ± 0.011 | 0.007 ± 0.0057
MyoF:SRB | 0.0015 ± 0.00071 | -0.004 ± 0.0028 | -0.004 ± 0.0057 | 0.0015 ± 0.0064 | 0.002 ± 0.0014 | 0.0005 ± 0.0021 | 0.002 ± 0.0042 | -0.004 | -0.0605 ± 0.005 | -0.001 ± 0.0099 | -0.004 ± 0.011 | -0.0085 ± 0.00071 | 0.009 ± 0.0014 | 0.008 ± 0.0085 | 0.007 ± 0.0057 | 0.0025 ± 0.0021 | 0.0055 ± 0.0078 | 0.001 ± 0.0085 | -0.0025 ± 0.00071 | -0.007 ± 0.0085
MyoF:TIMP-1 | 0.0115 ± 0.028 | 0.014 ± 0.035 | 0.025 ± 0.03 | 0.004 ± 0.0071 | 0.001 ± 0.011 | 0.025 ± 0.0028 | 0.0325 ± 0.0064 | -0.0445 ± 0.063 | -0.006 ± 0.057 | -0.031 ± 0.048 | 0.0025 ± 0.018 | 0.016 ± 0.042 | 0.0085 ± 0.0021 | -0.006 ± 0.0042 | 0.0245 ± 0.0064 | 0.0075 ± 0.049 | 0.0345 ± 0.013 | -0.013 ± 0.018 | -0.0025 ± 0.023 | -0.0065 ± 0.046
